Patent US20240342168A1, “SMALL MOLECULE INHIBITORS FOR ANTI-CANCER COMBINATION THERAPY” (UNIVERSITY OF CAPE TOWN, priority 2021, published 2024)

Assays:
[1] = test system: NFκB-p50 and NFκB-p65 in SiHa cells; experiment: Nuclear/cytoplasmic fractionation and Western blot; assay type: cell-based; details: INI-43-cisplatin CT vs cisplatin
Description: For protein extraction, cells were washed with PBS and lysed using RIPA buffer (50 mM Tris-CI, pH 7.4, 150 mM NaCl, 1% (w/v) sodium deoxycholate, 0.1% (v/v) SDS, 1% (v/v) Triton X-100, 2 mM EGTA, 2 mM EDTA, 50 mM NaF, 5 mM Na2P2O7, 1× complete protease inhibitor cocktail (Roche) and 0.1 M Sodium Orthovanadate). For PARP cleavage analysis, dead cells were collected by centrifugation and combined with live cell lysates. Lysates were sonicated, centrifuged, and the supernatant quantified using the BCA Protein Assay Kit (Pierce, Thermo Scientific) according to the manufacturer's instructions. […]
For nuclear/cytoplasmic protein extraction, cells were collected by trypsinization. […] The fractions were quantified using the BCA Protein Assay Kit (Pierce, Thermo Scientific) according to the manufacturer's instructions, followed by western blot analysis.

[2] = test system: NFκB-p50 and NFκB-p65 in SiHa cells; experiment: Immunofluorescence of NFκB nuclear localization; assay type: cell-based
Description: SiHa cells were plated on glass coverslips and treated for 24 h before fixation with 4% paraformaldehyde. Cells were permeabilised using 0.5% Triton-X-100/PBS and blocked using 1% BSA/PBST with 0.3 M Glycine. Primary antibody incubations were performed in 1% BSA/PBST, followed by secondary antibody incubation (Cy3 conjugated goat anti-rabbit, Jackson ImmunoResearch). Cell nuclei were counterstained with 0.5 μg/mL DAPI, and images captured using the Zeiss inverted fluorescence microscope under 100× oil immersion.

NFκB-p65 in cancer cells = details: van der Watt et al. 2016; cited from earlier work
SiHa cells [3] = experiment: PARP cleavage by Western blot; assay type: cell-based
Description: (§1) For protein extraction, cells were washed with PBS and lysed using RIPA buffer (50 mM Tris-CI, pH 7.4, 150 mM NaCl, 1% (w/v) sodium deoxycholate, 0.1% (v/v) SDS, 1% (v/v) Triton X-100, 2 mM EGTA, 2 mM EDTA, 50 mM NaF, 5 mM Na2P2O7, 1× complete protease inhibitor cocktail (Roche) and 0.1 M Sodium Orthovanadate). For PARP cleavage analysis, dead cells were collected by centrifugation and combined with live cell lysates. Lysates were sonicated, centrifuged, and the supernatant quantified using the BCA Protein Assay Kit (Pierce, Thermo Scientific) according to the manufacturer's instructions. Proteins were subjected to Western blot analysis using the following antibodies: rabbit anti-Kpnβ1 (H-300, sc-11,367, Santa Cruz), rabbit anti-β-tubulin (H-235, sc-9104, Santa Cruz), rabbit anti-PARP1/2 antibody (H-250, sc-7150, Santa Cruz), mouse anti-GAPDH (0411, sc-47,724, Santa Cruz), rabbit anti-p21 (H-164, sc-756, Santa Cruz), rabbit anti-Mcl-1 (H-260, sc-20,679, Santa Cruz), mouse anti-cyclin D1 (HD11, sc-246, Santa Cruz), rabbit anti-c-Myc (N-262, sc-764, Santa Cruz), mouse anti-p53 (DO-7, M7001, DakoCytomation), mouse anti-XIAP (610,763, BD Biosciences), and rabbit anti-phospho-Histone H2AX (γH2AX, Ser139, 20E3, #9718, Cell Signal).

HeLa cells [4] = experiment: PARP cleavage by Western blot; assay type: cell-based
Description: as §1

[5] = test system: p53, p21 and Mcl-1 in SiHa cells; experiment: Western blot of p53 and p53 targets; assay type: cell-based
Description: as §1

SiHa cells [6] = experiment: Combination index (CI) determination, Chou-Talalay method; assay type: cell-based; details: INI-43 to cisplatin ratios 1:3, 1:4 and 1:5, at Fa>0.2, 2 h pre-incubation, 48 h
Description: (§2) To elucidate the nature of the combined use of INI-43 and cisplatin, the Chou-Talalay method was adopted (Chou T C, Talalay P. Quantitative analysis of dose-effect relationships: the combined effects of multiple drugs or enzyme inhibitors. Adv Enzym Regul. 1984; 22:27-55). Cell viability was determined after 48-h treatment at fixed INI-43 to cisplatin ratios of 1:3, 1:4 and 1:5 (Table 1 below). Cell viability was converted to fraction affected (Fa) and CI calculated using CompuSyn software (ComboSyn, Inc.).

WHC05 = experiment: as above; assay type: cell-based; details: WHC05 oesophageal cancer cell line
Description: as §2

HeLa = experiment: as above; assay type: cell-based; details: HeLa cervical cancer cell line
Description: as §2

Mel 80 = experiment: as above; assay type: cell-based; details: Mel 80 cervical cancer cell line
Description: as §2

Kyse 30 = experiment: as above; assay type: cell-based; details: Kyse 30 oesophageal cancer cell line
Description: as §2

HeLa cells [7] = experiment: Drug washout experiments (MTT); assay type: cell-based
Description: Cells were plated in 96-well plates and subjected to 2 h INI-43 pre-treatment followed by cisplatin treatment, with or without removing INI-43 from the media, for 48 h. Following treatment, MTT (Sigma) was added and 4 h later crystals solubilized using 10% SLS in 0.01 M HCl.

p53 in SiHa cells = experiment: p53 half-life determination (cycloheximide chase, Western blot); assay type: cell-based; details: 5 μM INI-43 2 h vs DMSO, then 50 μg/mL CHX
Description: Cells were treated with 5 μM INI-43 or DMSO for 2 hours or transfected with 20 nM si-ctrl or si-Kpnβ1 for 48 h prior to p53 half-life determination. Cells were treated with 50 μg/mL cycloheximide (CHX), and protein harvested at 0, 15, 30, 45, 60 and 90 min after CHX treatment. p53 content was analysed by western blotting. Bands were quantified by densitometrical scanning using ImageJ, normalised to GAPDH and expressed as a value relative to p53 intensity at time 0. Relative band intensities were plotted in log scale against time of CHX treatment and a linear trendline drawn. The half-life was calculated using the formula T1/2 (minutes)=Log(2)/[slope].

[8] = INI-43 pre-treatment plus cisplatin

Compound: CN(C)CCCn1c(N)c(-c2nc3ccccc3[nH]2)c2nc3ccccc3nc21 [INI-43]
- levels of NFκB-p50 and NFκB-p65 in the nucleus [1]: reduced this effect
- nuclear fluorescence relative to cytoplasmic fluorescence (Fc (Nu/Cy)) ([2]; INI-43-cisplatin CT vs cisplatin): significantly reduced this effect
- cisplatin-induced nuclear translocation of NFκB-p50 and NFκB-p65 [2, 8]: prevented this nuclear translocation
- PMA-stimulated nuclear entry of NFκB-p65 (NFκB-p65 in cancer cells): prohibited
- apoptosis (PARP cleavage), INI-43 on its own (SiHa cells [3]; 5 μM INI-43): negligible apoptosis
- PARP cleavage, combination treated vs cisplatin only (SiHa cells [3]; [8]): enhanced PARP cleavage
- apoptosis (PARP cleavage), INI-43 on its own (HeLa cells [4]; 5 μM INI-43): negligible apoptosis
- PARP cleavage, combination treated vs cisplatin only (HeLa cells [4]; [8]): enhanced PARP cleavage
- Mcl-1 levels, INI-43 and cisplatin vs single cisplatin ([5]; 60 μM cisplatin): reduced
- p21 levels, INI-43 and cisplatin vs single cisplatin ([5]; 30 and 60 μM cisplatin): elevated
- p53 protein levels ([5]; SiHa, treatment with INI-43 and cisplatin): increased
- combination index (CI) values (SiHa cells [6]): below 1
- nature of INI-43 and cisplatin combination (CI) (WHC05): synergism
- nature of INI-43 and cisplatin combination (CI) (HeLa): synergism
- nature of INI-43 and cisplatin combination (CI) (Mel 80): synergism
- nature of INI-43 and cisplatin combination (CI) (Kyse 30): synergism
- cell viability, combination treatment vs cisplatin alone after INI-43 washout (HeLa cells [7]; 2 h INI-43, removed before cisplatin treatment (washout 1 and 2), 48 h): significantly reduced cell viability
- enhancement of cell death upon combination treatment after INI-43 washout (HeLa cells [7]; HeLa cells, vs INI-43 still present): slightly reduced
- increase in p53 half-life (p53 in SiHa cells): ~2.9 fold
